Columns and labels:
[1] = tested on: hEHM (human engineered heart muscle); experiment: Spontaneous contraction frequency of hEHM by light microscopy; assay type: cell-based; details: n=6
Experimental: (§1) The inventors analyzed force of contraction and twitch kinetics (contraction time: time from 50% to maximal contraction; relaxation time: time from maximal contraction to 50% relaxation) under isometric conditions as described before (Zimmermann et al. Circ Res 90: 223-230 (2002), incorporated herein by reference). Contraction frequency was assessed by light microcopy (unstimulated spontaneous contractions) immediately after removing EHMs from the incubator.

[2] = tested on: hEHM (human engineered heart muscle); experiment: Isometric force of contraction and twitch kinetics of hEHM; assay type: cell-based
Experimental: as §1

[3] = tested on: hEHM (human engineered heart muscle); experiment: hEHM formation and contractile force with varied matrix, basal medium and supplements; assay type: cell-based; details: for force-generation of hEHM: 10 ng/ml added to serum-free medium, hES2; for hEHM formation and function by matrix component: contractile force at 2 mmol/L extracellular calcium
Experimental: The inventors constructed hEHMs using a modified EHM-engineering protocol (Zimmermann et al. Circ Res 90: 223-230 (2002), incorporated herein by reference). Briefly, EHMs (reconstitution volume: 450 μl) were prepared by pipetting a mixture containing freshly dispersed ESC-derivatives (1×10^4-15×10^6 cells in Iscove-Medium with 20% fetal calf serum, 1% non-essential amino acids, 2 mmol/l glutamine, 100 μmol/l β-mercaptoethanol, 100 U/ml penicillin, and […]), pH-neutralized collagen type I from rat tails (0.4 mg/EHM), Matrigel™ (10% v/v; Becton Dickenson or tebu), and concentrated serum-containing culture medium (2× DMEM, 20% horse serum, 4% chick embryo extract, 200 U/ml penicillin, and […] streptomycin) in circular molds (inner/outer diameter: 2/4 mm; height: 5 mm) (Table 1). hEHM condensed quickly within the casting molds and were transferred onto static stretch devices (110% of slack length) (Zimmermann et al. Nat Med 12: 452-458 (2006), incorporated herein by reference) on culture day 3. Medium was changed every other day. hEHM culture under stretch was performed for 7 days.
A protocol with reduced xenogenic components (Matrix protocol, Table 1) was established to enable pre-GMP hEHM. Cells were reconstituted in a mixture of pH-neutralized bovine collagen (Devros Medical, 0.4 mg/EHM), concentrated serum-containing culture medium (2× DMEM, 40% fetal calf serum, 200 U/ml penicillin, and […] streptomycin) and cultured in Iscove-Medium with 20% fetal calf serum, 1% non-essential amino acids, 2 mmol/l glutamine, 0.3 mmol/l ascorbic acid, 100 μmol/l β-mercaptoethanol, 100 U/ml penicillin, and 100 μg/ml streptomycin.
To generate fully defined, serum-free EHM cells were reconstituted in a mixture of pH-neutralized bovine collagen (Devros Medical, 0.4 mg/EHM), concentrated serum-free medium medium (2× DMEM, 8% B27, 200 U/ml penicillin, and […] streptomycin) and cultured in Iscove-Medium with full 4% B27, 1% non-essential amino acids, 2 mmol/l glutamine, 0.3 mmol/l ascorbic acid, 20 ng/ml IGF-1, 10 ng/ml FGF2, 10 ng/ml VEGF, 5 ng/ml TGFb1 (culture day 0-3 only), and 100 U/ml penicillin, and 100 μg/ml streptomycin (Serum-free protocol, Table 1). B27 supplement contains vitamins (Biotin, DL Alpha Tocopherol, Acetate DL Alpha-Tocopherol, Vitamin A), proteins and enzymes (BSA, fatty acid free Fraction V, Catalase, Human Recombinant Insulin, Human Transferrin, Superoxide Dismutase), and other cell-supporting components (Corticosterone, D-Galactose, Ethanolamine, Glutathione (reduced), L-Carnitine, Linoleic Acid, Linolenic Acid, Progesterone, Putrescine, Sodium Selenite, and T3 (triodo-I-thyronine). Where indicated full B27 (Invitrogen, A1486701) was compared to B27 without antioxidants (Invitrogen, #10889038) and B27 without insulin (Invitrogen, #0050129SA). B27 supplement was replaced by a custom-made supplement consisting of Albumin, Transferrin, Ethanolamine, Sodium selenite, L-Carnitine HCl, Hydrocortisone, Fatty acid supplement, and Triiodo-L-thyronine (Table 2).
as §1

[4] = tested on: human embryoid body (EB) cultures; experiment: Flow cytometry-based screen of media and supplements in 3D human embryoid body (EB) cultures; details: for cell death (sub-G1 fraction): compared to serum free medium without the factor or to other media, growth factors at above EC50 concentrations; for cardiomyocyte actinin expression (CM maturation): mean actinin fluorescence per cardiomyocyte
Experimental: EBs cultured in different medium conditions were made into a single cell suspension as described above. Cells were fixed in 70% ice cold ethanol under constant mixing. The cells were stained for sarcomeric actinin (Sigma) to label cardiomyocytes and DAPI to analyze nuclear DNA content and to exclude cell doublets. Cells were run on a LSRII Cytometer (BD). At least 10,000 live cells were analyzed. The following parameters were then analyzed, (1) cell death (percentage of cells in the sub-G1 fraction), (2) cardiomyocyte and non-myocyte percentage (Actinin-positive and negative cells, respectively) (3) Cardiomyocte maturation (mean actinin fluorescence), (4) cardiomyocyte and (5) non-myocyte size (based on sideward scatter area, SSC-A).

[5] = compared to serum free medium without the factor

Molecule: CC(C)Cn1c(=O)n(C)c(=O)c2[nH]cnc21 [IBMX, 3-isobutyl-1-methylxanthine]
- spontaneous beating rate ([1]; IBMX 100 μmol/l in addition to isoprenaline): 1.6±0.1 Hz

Molecule: [Ca+2] [calcium]
- maximal twitch mean force ([2]; at 2.4 mmol/l calcium, n=17): 130±13 μN
- EC50 ([2]; increasing extracellular calcium, n=17): 800 ± 40 µM
- maximal force and isoprenaline response of hEHM in RPMI with added calcium ([3]; RPMI plus 0.8 mM CaCl (final free calcium 1.242 mmol/L) versus RPMI (0.424 mmol/L)): lead to measurable maximal force and better responsiveness to isoprenalin

Molecule: CC(C)NCC(O)c1ccc(O)c(O)c1 (stereo not shown) [isoprenaline, reference compound]
- relaxation time ([2]; 1 μmol/l isoprenaline at 0.4 mmol/l extracellular calcium, n=12): 113 ± 2.3 ms
- increase in force of contraction ([2]; 1 μmol/l isoprenaline at sub-EC50 extracellular calcium (0.4 mmol/l), n=12): 47±12%
- spontaneous beating frequency ([1]; incubation with isoprenaline, hEHM at 10 days, baseline 0.8±0.05 Hz at 37° C.): 1.2±0.1 Hz

Molecule: FGF-2: peptide growth factor (Peprotech, AF-100-18B)
- force-generation of hEHM [3]: able to enhance force-generation
- non-myocyte growth [4, 5]: supported non-myocyte growth
- cardiomyocyte cell size ([4]; sideward scatter area): increased cardiomyocyte cell size

Molecule: IGF-1: peptide growth factor (Peprotech, AF-100-11)
- cell death (sub-G1 fraction) [4]: appeared to protect from cell death

Molecule: Neuregulin-1
- cell death (sub-G1 fraction) [4]: caused substantial cell death

Molecule: TGFβ1: peptide growth factor (Peprotech, 100-21)
- formation of functional EHM ([3]; addition to serum-free medium from day 0 to 3 (5 ng/ml)): essential
- formation of functional EHM, prolonged treatment ([3]; prolonged treatment (culture day 0-10) versus day 0-3): did not yield an additional benefit
- cardiomyocyte actinin expression (CM maturation) [4]: enhanced individual cardiomyocyte actinin expression

Molecule: VEGF
- force-generation of hEHM [3]: able to enhance force-generation
- cardiomyocyte actinin expression (CM maturation) [4]: enhanced individual cardiomyocyte actinin expression

Molecule: fibronectin
- hEHM formation and function by matrix component [3]: did not yield additional benefit

Molecule: laminin
- hEHM formation and function by matrix component [3]: did not yield additional benefit

B1: PDGF-BB: peptide growth factor (protein, UniProt P01127 82-190, looked up)
Platelet-derived growth …: SLGSLTIAEPAMIAECKTRTEVFEISRRLIDRTNANFLVWPPCVEVQRCSGCCNNRNVQCRPTQVQLRPVQVRKIEIVRKKPIFKKATVTLEDHLACKCETVAAARPVT
- cell death (sub-G1 fraction) [4]: caused substantial cell death

B2: CT-1: peptide growth factor (Cardiotrophin-1) (protein, UniProt Q16619 1-201, looked up)
Cardiotrophin-1: MSRREGSLEDPQTDSSVSLLPHLEAKIRQTHSLAHLLTKYAEQLLQEYVQLQGDPFGLPSFSPPRLPVAGLSAPAPSHAGLPVHERLRLDAAALAALPPLLDAVCRRQAELNPRAPRLLRRLEDAARQARALGAAVEALLAALGAANRGPRAEPPAATASAASATGVFPAKVLGLRVCGLYREWLSRTEGDLGQLLPGGSA
- cell death (sub-G1 fraction) [4]: caused substantial cell death

B3: TGFβ2: peptide growth factor (protein, UniProt P61812 303-414, looked up)
Transforming growth factor …: ALDAAYCFRNVQDNCCLRPLYIDFKRDLGWKWIHEPKGYNANFCAGACPYLWSSDTQHSRVLSLYNTINPEASASPCCVSQDLEPLTILYYIGKTPKIEQLSNMIVKSCKCS
modifications: Transforming growth factor beta-2
- overall effect in growth factor screen [4, 5]: had no beneficial effect
